Our source for the Kd values is publication PMC10353060, “A Chemical Chaperone Restores Connexin 26 Mutant Activity” (ACS Pharmacology & Translational Science, 2023).

The target in one assay is T1, connexin 26 (Cx26) (Homo sapiens, UniProt P29033).
T1 construct: gene GJB2; purified recombinant WT connexin channel, His-tag Cy5 labeled
As to the kind of experiment: microscale thermophoresis (MST). The class given is binding. Particulars: read-out: EC50. In general terms: MST reads how a fluorescent partner responds to local heating, with and without ligand.

A further assay concerns the target T2, connexin 26 (Cx26) K188N (Homo sapiens, UniProt P29033, K188N).
T2 construct: gene GJB2; purified recombinant connexin channel, His-tag Cy5 labeled
As to the kind of experiment: microscale thermophoresis (MST). Format: binding. Particulars: read-out: EC50.

Structures are written as SMILES.

With `O=C(Nc1ncc([C@H](c2ccccc2Cl)N2CC[C@@H](O)C2)s1)C1(c2ccc3c(c2)OCO3)CC1` [compound 3, 1-(benzo[d][1,3]dioxol-5-yl)-N-(5-((S)-(2-chlorophenyl)((R)-3-hydroxypyrrolidin-1-yl)methyl)thiazol-2-yl) cyclopropanecarboxamide], the Kd stood at 19.3 ± 7.3 µM at connexin 26 (Cx26) and 4.75 ± 1 µM at connexin 26 (Cx26) K188N.
